Reference: paper PMC9927415, “Tyrosine Kinase Inhibitors Display Potent Activity against Cryptosporidium parvum” (Microbiology Spectrum, 2022)

How the values were obtained:
Test in all cases: KINOMEscan competitive binding, whole panel
panel of 203 kinases [1] = target: T1, panel of 203 kinases (Homo sapiens, UniProt P22455); settings: 10 µM, n=1; kinase FGFR4; read-out: Percent inhibition FGFR4
T1 construct: purchased DiscoverX (KINOMEscan)
Source text: (§1) The kinases were expressed as fusions to T7 bacteriophage. This is a sensitive, competitive binding assay where test compounds were used to displace immobilized ATP-site binding probe ligands from kinases of interest. The amount of kinase that remained bound to the immobilized probe ligands on the solid support was quantified. Percentage inhibition data were was plotted on kinome trees using the web-based tool KinMap (http://www.kinhub.org/kinmap) ([60]).

panel of 203 kinases [2] = target: T2, panel of 203 kinases (Homo sapiens, UniProt Q06187); settings: 10 µM, n=1; kinase BTK; read-out: Percent inhibition BTK
T2 construct: purchased DiscoverX (KINOMEscan)
T2 sequence (Q06187 whole entry): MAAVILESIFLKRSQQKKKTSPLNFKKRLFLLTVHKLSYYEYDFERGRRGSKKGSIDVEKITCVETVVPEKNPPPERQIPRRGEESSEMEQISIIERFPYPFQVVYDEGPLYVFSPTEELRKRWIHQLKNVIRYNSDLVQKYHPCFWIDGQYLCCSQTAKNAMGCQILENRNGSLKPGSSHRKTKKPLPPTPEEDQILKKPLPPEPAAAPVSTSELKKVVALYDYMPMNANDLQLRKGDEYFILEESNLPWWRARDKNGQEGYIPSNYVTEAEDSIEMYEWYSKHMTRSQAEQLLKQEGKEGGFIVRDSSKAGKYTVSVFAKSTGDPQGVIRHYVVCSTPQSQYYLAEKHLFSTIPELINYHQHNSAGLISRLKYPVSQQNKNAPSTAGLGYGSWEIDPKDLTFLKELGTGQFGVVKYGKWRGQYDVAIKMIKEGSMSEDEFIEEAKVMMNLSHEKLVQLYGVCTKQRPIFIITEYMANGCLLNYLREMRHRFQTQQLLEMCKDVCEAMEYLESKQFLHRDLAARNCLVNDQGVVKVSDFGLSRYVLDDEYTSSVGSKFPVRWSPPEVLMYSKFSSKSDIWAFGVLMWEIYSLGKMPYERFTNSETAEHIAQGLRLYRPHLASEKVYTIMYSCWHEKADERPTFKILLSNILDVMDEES
Source text: as §1

panel of 203 kinases [3] = target: T3, panel of 203 kinases (Homo sapiens, UniProt Q8IVH8); settings: 10 µM, n=1; kinase MAP4K3; read-out: Percent inhibition MAP4K3
T3 construct: purchased DiscoverX (KINOMEscan)
T3 sequence (Q8IVH8 1-894): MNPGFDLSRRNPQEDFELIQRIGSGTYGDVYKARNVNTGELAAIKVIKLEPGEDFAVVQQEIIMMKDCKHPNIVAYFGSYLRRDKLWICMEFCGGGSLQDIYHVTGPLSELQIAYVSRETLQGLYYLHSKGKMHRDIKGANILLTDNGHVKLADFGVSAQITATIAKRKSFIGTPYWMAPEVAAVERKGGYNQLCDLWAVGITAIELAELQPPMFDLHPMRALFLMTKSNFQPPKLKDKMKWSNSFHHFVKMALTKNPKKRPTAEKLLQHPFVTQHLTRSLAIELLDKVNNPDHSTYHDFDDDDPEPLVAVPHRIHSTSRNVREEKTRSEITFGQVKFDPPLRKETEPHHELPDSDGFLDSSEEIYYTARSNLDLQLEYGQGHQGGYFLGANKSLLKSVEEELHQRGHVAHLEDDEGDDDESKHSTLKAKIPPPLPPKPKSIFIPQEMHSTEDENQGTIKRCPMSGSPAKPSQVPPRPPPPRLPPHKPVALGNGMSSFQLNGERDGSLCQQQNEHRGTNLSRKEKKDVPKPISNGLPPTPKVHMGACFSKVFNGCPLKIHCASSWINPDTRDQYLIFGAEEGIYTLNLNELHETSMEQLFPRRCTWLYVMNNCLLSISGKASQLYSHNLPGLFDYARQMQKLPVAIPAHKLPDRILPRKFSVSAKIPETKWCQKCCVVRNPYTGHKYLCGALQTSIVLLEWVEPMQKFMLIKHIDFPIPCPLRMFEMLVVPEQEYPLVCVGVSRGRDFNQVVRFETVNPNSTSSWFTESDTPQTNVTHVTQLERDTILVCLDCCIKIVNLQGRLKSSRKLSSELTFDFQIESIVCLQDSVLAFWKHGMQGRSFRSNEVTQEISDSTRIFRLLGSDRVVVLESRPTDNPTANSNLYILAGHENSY
Source text: as §1

panel of 203 kinases [4] = target: T4, panel of 203 kinases (Homo sapiens, UniProt P51955); settings: 10 µM, n=1; kinase NEK2; read-out: Percent inhibition NEK2
T4 construct: purchased DiscoverX (KINOMEscan)
T4 sequence (P51955 1-445): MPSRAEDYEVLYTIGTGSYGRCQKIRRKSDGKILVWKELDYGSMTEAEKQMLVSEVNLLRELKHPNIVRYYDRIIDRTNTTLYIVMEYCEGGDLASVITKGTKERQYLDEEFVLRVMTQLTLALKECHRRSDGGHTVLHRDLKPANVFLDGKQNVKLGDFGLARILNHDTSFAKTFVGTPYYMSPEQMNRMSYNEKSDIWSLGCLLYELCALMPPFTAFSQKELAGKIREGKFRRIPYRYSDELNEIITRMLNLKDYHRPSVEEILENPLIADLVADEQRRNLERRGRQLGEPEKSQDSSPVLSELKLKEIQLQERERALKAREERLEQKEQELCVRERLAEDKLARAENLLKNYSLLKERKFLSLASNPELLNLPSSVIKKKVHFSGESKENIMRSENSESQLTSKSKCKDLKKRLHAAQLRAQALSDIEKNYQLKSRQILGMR
Source text: as §1

T1 sequence (P22455 22-802): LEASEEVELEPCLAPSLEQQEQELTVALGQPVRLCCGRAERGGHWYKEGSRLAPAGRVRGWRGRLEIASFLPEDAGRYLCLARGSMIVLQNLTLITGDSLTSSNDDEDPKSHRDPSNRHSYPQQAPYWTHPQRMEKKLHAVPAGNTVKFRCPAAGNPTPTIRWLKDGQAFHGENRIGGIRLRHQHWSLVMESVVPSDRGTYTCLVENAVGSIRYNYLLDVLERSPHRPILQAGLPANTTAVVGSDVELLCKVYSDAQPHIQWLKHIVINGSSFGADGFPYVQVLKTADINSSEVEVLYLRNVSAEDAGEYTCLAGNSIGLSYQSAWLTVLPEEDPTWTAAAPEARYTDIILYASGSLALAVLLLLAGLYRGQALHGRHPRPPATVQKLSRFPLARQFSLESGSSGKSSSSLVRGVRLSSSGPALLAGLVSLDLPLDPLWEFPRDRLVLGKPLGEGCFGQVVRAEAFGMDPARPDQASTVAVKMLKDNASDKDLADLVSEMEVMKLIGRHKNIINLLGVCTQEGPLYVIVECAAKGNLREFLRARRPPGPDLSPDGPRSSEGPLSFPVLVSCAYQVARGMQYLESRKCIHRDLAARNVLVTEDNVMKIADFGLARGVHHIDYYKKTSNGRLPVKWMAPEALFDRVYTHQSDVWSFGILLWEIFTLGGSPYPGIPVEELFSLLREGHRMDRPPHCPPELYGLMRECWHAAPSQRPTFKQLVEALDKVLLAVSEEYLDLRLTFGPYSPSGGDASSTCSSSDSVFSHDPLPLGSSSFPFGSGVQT

Row | Structure (SMILES) | inhibition at 10 µM (panel of 203 kinases [1]) | inhibition at 10 µM (panel of 203 kinases [2]) | inhibition at 10 µM (panel of 203 kinases [3]) | inhibition at 10 µM (panel of 203 kinases [4])
1 | Cc1ccc(O)cc1Nc1ccnc(Nc2cccc(C(N)=O)c2)n1 [Compound 3] | 82.4% | 96% | 80.2% | 0%
2 | Cc1ccc(O)cc1N(C)c1ccnc(Nc2cccc(S(N)(=O)=O)c2)n1 [Compound 4] | 0% | 95% | 98.5% | 0%
3 | CN1CCN(c2ccc(Nc3nccc(-c4cnn5ncccc45)n3)cc2C#N)CC1 [Compound 1] | 0% | 0% | 97% | 98.5%
4 | Clc1ccc(Nc2ncc(-c3ccccc3)s2)cc1 [Compound 10] | 0% | 0% | 0% | 0%
5 | Nc1ncc2c(-c3ccncc3)c[nH]c2n1 [Compound 11] | 0% | 0% | 82% | 0%
6 | Fc1cccc(COc2ccc(Nc3ncnc4c3CN(CCN3CCOCC3)CC4)cc2Cl)c1 [Compound 6] | 0% | 0% | 0% | 0%
7 | COc1ccc(Nc2nccc(-c3cnn4ncccc34)n2)cc1 [Compound 2] | 0% | 0% | 79.3% | 99.9%
8 | C[C@@H](Oc1cc(-c2cnc3ccccn23)sc1C(N)=O)c1ccccc1Cl [Compound 8] | 0% | 0% | 0% | 99.4%
9 | COc1cc(Nc2nccc(-c3sc(N)nc3-c3cccc(NC(=O)c4c(F)cccc4F)c3)n2)cc(OC)c1OC [Compound 7] | 100% | 100% | 99.7% | 100%
10 | c1ccc(COc2cccc(-c3ccnc4[nH]ccc34)c2)cc1 [Compound 9] | 0% | 0% | 0% | 0%
